Laboratory results reported in patent US8192962B2, “Processes for detecting toxic substances” (Daikin Industries, Ltd., priority 2001, dated 2012).

System: Genes belonging to other category
Test: DNA chip mRNA expression in yeast, genes belonging to other category (Table 9)
Format: cell-based, Saccharomyces cerevisiae S288C
Procedure, shortened: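 Expression change after 2 h toxicant exposure (growth-inhibiting, sub-lethal) of log-phase S. cerevisiae S288C at 25° C. Oligo-dT-purified mRNA was labeled with Cy3-dUTP or Cy5-dUTP and hybridized >12 h at 65° C. to a genome-wide chip; ratio of scanned fluorescence to control.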

CCCCCCCCCCCCOS(=O)(=O)[O-].[Na+] [(18), sodium lauryl sulfate]
The level of expressed mRNA in the presence of chemical substance/The level of expressed mRNA in the absence of chemical substance (yeast gene YJL035C): 1.0
The level of expressed mRNA in the presence of chemical substance/The level of expressed mRNA in the absence of chemical substance (yeast gene YJL073W): 1.0
The level of expressed mRNA in the presence of chemical substance/The level of expressed mRNA in the absence of chemical substance (yeast gene YJL089W): 1.1
The level of expressed mRNA in the presence of chemical substance/The level of expressed mRNA in the absence of chemical substance (yeast gene YJL103C): 1.2
The level of expressed mRNA in the presence of chemical substance/The level of expressed mRNA in the absence of chemical substance (yeast gene YJL116C): 0.7
The level of expressed mRNA in the presence of chemical substance/The level of expressed mRNA in the absence of chemical substance (yeast gene YJL164C): 1.7
The level of expressed mRNA in the presence of chemical substance/The level of expressed mRNA in the absence of chemical substance (yeast gene YJL210W): 1.0
The level of expressed mRNA in the presence of chemical substance/The level of expressed mRNA in the absence of chemical substance (yeast gene YJR004C): 0.4
The level of expressed mRNA in the presence of chemical substance/The level of expressed mRNA in the absence of chemical substance (yeast gene YJR019C): 1.4
The level of expressed mRNA in the presence of chemical substance/The level of expressed mRNA in the absence of chemical substance (yeast gene YJR036C): 1.2
The level of expressed mRNA in the presence of chemical substance/The level of expressed mRNA in the absence of chemical substance (yeast gene YJR047C): 0.9
The level of expressed mRNA in the presence of chemical substance/The level of expressed mRNA in the absence of chemical substance (yeast gene YJR050W): 1.1
The level of expressed mRNA in the presence of chemical substance/The level of expressed mRNA in the absence of chemical substance (yeast gene YJR058C): 1.2
The level of expressed mRNA in the presence of chemical substance/The level of expressed mRNA in the absence of chemical substance (yeast gene YJR086W): 1.6
The level of expressed mRNA in the presence of chemical substance/The level of expressed mRNA in the absence of chemical substance (yeast gene YJR117W): 0.9
The level of expressed mRNA in the presence of chemical substance/The level of expressed mRNA in the absence of chemical substance (yeast gene YJR119C): 0.9
The level of expressed mRNA in the presence of chemical substance/The level of expressed mRNA in the absence of chemical substance (yeast gene YJR123W): 0.9
The level of expressed mRNA in the presence of chemical substance/The level of expressed mRNA in the absence of chemical substance (yeast gene YJR145C): 0.9
The level of expressed mRNA in the presence of chemical substance/The level of expressed mRNA in the absence of chemical substance (yeast gene YKL007W): 1.3
The level of expressed mRNA in the presence of chemical substance/The level of expressed mRNA in the absence of chemical substance (yeast gene YKL008C): 1.9
The level of expressed mRNA in the presence of chemical substance/The level of expressed mRNA in the absence of chemical substance (yeast gene YKL013C): 1.7
The level of expressed mRNA in the presence of chemical substance/The level of expressed mRNA in the absence of chemical substance (yeast gene YKL039W): 1.3
The level of expressed mRNA in the presence of chemical substance/The level of expressed mRNA in the absence of chemical substance (yeast gene YKL041W): 1.3
The level of expressed mRNA in the presence of chemical substance/The level of expressed mRNA in the absence of chemical substance (yeast gene YKL056C): 1.2
The level of expressed mRNA in the presence of chemical substance/The level of expressed mRNA in the absence of chemical substance (yeast gene YKL079W): 1.2
The level of expressed mRNA in the presence of chemical substance/The level of expressed mRNA in the absence of chemical substance (yeast gene YKL096W): 0.7
The level of expressed mRNA in the presence of chemical substance/The level of expressed mRNA in the absence of chemical substance (yeast gene YKL117W): 1.8
The level of expressed mRNA in the presence of chemical substance/The level of expressed mRNA in the absence of chemical substance (yeast gene YKL165C): 1.0
The level of expressed mRNA in the presence of chemical substance/The level of expressed mRNA in the absence of chemical substance (yeast gene YKL171W): 1.2
The level of expressed mRNA in the presence of chemical substance/The level of expressed mRNA in the absence of chemical substance (yeast gene YKL193C): 2.3
The level of expressed mRNA in the presence of chemical substance/The level of expressed mRNA in the absence of chemical substance (yeast gene YLR093C): 3.2
The level of expressed mRNA in the presence of chemical substance/The level of expressed mRNA in the absence of chemical substance (yeast gene YLR120C): 2.9
The level of expressed mRNA in the presence of chemical substance/The level of expressed mRNA in the absence of chemical substance (yeast gene YLR136C): 1.4
The level of expressed mRNA in the presence of chemical substance/The level of expressed mRNA in the absence of chemical substance (yeast gene YLR178C): 3.6
The level of expressed mRNA in the presence of chemical substance/The level of expressed mRNA in the absence of chemical substance (yeast gene YLR206W): 1.2
The level of expressed mRNA in the presence of chemical substance/The level of expressed mRNA in the absence of chemical substance (yeast gene YLR250W): 2.2
The level of expressed mRNA in the presence of chemical substance/The level of expressed mRNA in the absence of chemical substance (yeast gene YLR327C): 5.3
The level of expressed mRNA in the presence of chemical substance/The level of expressed mRNA in the absence of chemical substance (yeast gene YLR356W): 1.0
The level of expressed mRNA in the presence of chemical substance/The level of expressed mRNA in the absence of chemical substance (yeast gene YLR362W): 1.3
The level of expressed mRNA in the presence of chemical substance/The level of expressed mRNA in the absence of chemical substance (yeast gene YLR391W): 0.9
The level of expressed mRNA in the presence of chemical substance/The level of expressed mRNA in the absence of chemical substance (yeast gene YLR429W): 0.9
The level of expressed mRNA in the presence of chemical substance/The level of expressed mRNA in the absence of chemical substance (yeast gene YML130C): 1.2
The level of expressed mRNA in the presence of chemical substance/The level of expressed mRNA in the absence of chemical substance (yeast gene YMR004W): 1.3
The level of expressed mRNA in the presence of chemical substance/The level of expressed mRNA in the absence of chemical substance (yeast gene YMR091C): 1.2
The level of expressed mRNA in the presence of chemical substance/The level of expressed mRNA in the absence of chemical substance (yeast gene YMR094W): 1.0
The level of expressed mRNA in the presence of chemical substance/The level of expressed mRNA in the absence of chemical substance (yeast gene YMR104C): 1.9
The level of expressed mRNA in the presence of chemical substance/The level of expressed mRNA in the absence of chemical substance (yeast gene YMR110C): 2.5
The level of expressed mRNA in the presence of chemical substance/The level of expressed mRNA in the absence of chemical substance (yeast gene YMR112C): 1.6
